# Reference: ChEMBL document CHEMBL6083217, “Identification of isoquinolinone DHODH inhibitor isosteres” (Bioorg Med Chem Lett, 2024)
# pIC50: −log10 of the molar value.
# Legend:
# [1] = Protein binding in human plasma; assay type: ADME, cell-free; details: read-out: PPB (converted)
# [2] = Volume of distribution at steady state in C57BL mouse at 10 mg/kg, po or 2 mg/kg, iv; assay type: ADME, organism-based; details: in vivo
# [3] = Tmax in C57BL mouse at 10 mg/kg, po or 2 mg/kg, iv; assay type: ADME, organism-based; details: in vivo
# [4] = Half life in C57BL mouse at 10 mg/kg, po or 2 mg/kg, iv; assay type: ADME, organism-based; details: in vivo
# [5] = Metabolic stability in human liver microsomes assessed as half life; assay type: ADME, Microsome
# [6] = Oral bioavailability in C57BL mouse at 10 mg/kg; assay type: ADME, organism-based; details: in vivo
# [7] = Solubility of compound in FaSSIF at pH 6.5; assay type: physicochemical
# [8] = Protein binding in mouse plasma; assay type: ADME, cell-free; details: read-out: PPB (converted)
# [9] = Solubility of compound in SGF at pH 1; assay type: physicochemical
# [10] = Cmax in C57BL mouse at 10 mg/kg, po or 2 mg/kg, iv; assay type: ADME, organism-based; details: in vivo
# [11] = Unbound clearance in C57BL mouse at 10 mg/kg, po or 2 mg/kg, iv; assay type: ADME, organism-based; details: in vivo
# [12] = AUC (0 to infinity) in C57BL mouse at 10 mg/kg, po or 2 mg/kg, iv; assay type: ADME, organism-based; details: in vivo
# [13] = Metabolic stability in mouse liver microsomes assessed as half life; assay type: ADME, Microsome
# [14] = Solubility of compound at pH 7; assay type: physicochemical; details: buffer
# MOLM-13 = assay: cells; details: Homo sapiens, MOLM-13, 72 h
# Description: Antiproliferative activity against human MOLM-13 cells assessed as inhibition of cell viability incubated for 72 hrs by Cell Titer Glo assay
SMILES,fraction unbound [1],Vdss [2] [L/kg],Tmax [3] [h],half-life [4] [h],half-life [5] [h],bioavailability [6] [%],solubility at 24 h [7] [µg/mL],fraction unbound [8],solubility at 24 h [9] [µg/mL],Cmax [10] [ng/mL],CL free [11] [mL/min/kg],AUC(0-inf) [12] [ng·h/mL],half-life [13] [h],solubility [14] [µM],pIC50 (MOLM-13)
CCn1c(CO)nn(-c2cc3c(C(C)C)cn(-c4ccccc4C)c(=O)c3cc2F)c1=O,0.099,1.64,1.67,5.68,> 3,125,67,0.088,25,6170,41.4,57200,> 3,371,
CCn1c(CO)nn(-c2cc3c(C(C)C)cn(-c4c(F)cccc4Cl)c(=O)c3cc2F)c1=O,,,,,> 3,,,,,,,,> 3,< 4,
CCn1c(CO)nn(-c2nc3c(C(C)C)nn(-c4ccccc4C)c(=O)c3cc2F)c1=O,,,,,> 3,,,,,,,,> 3,133,8.48
CCn1c(CO)nn(-c2cc3c([C@H](C)C(F)(F)F)nn(-c4ccccc4C)c(=O)c3cc2F)c1=O,,,,,> 3,,,,,,,,> 3,< 4,8.80
CCn1c(CO)nn(-c2cc3c([C@@H](C)C(F)(F)F)nn(-c4ccccc4C)c(=O)c3cc2F)c1=O,,,,,2.98,,,,,,,,> 3,< 4,8.85
CCn1c(CO)nn(-c2cc3c(cc2F)c(=O)c(-c2ccccc2C)cn3C(C)C)c1=O,,,,,> 3,,,,,,,,> 3,83,8.03
CCn1c(CO)nn(-c2cc3c(cc2F)c(=O)c(-c2c(F)cccc2Cl)cn3C(C)C)c1=O,,,,,> 3,,,,,,,,> 3,> 400,7.54
CCn1c(CO)nn(-c2cc3c(cc2F)C(=O)N(c2ccccc2C)C[C@H]3C(C)C)c1=O,,,,,,,,,,,,,,,7.72
CCn1c(CO)nn(-c2cc3c(cc2F)C(=O)N(c2c(F)cccc2Cl)CN3C(C)C)c1=O,,,,,,,,,,,,,,,9.07
CCn1c(CO)nn(-c2cc3c(cc2F)C(=O)N(c2ccccc2C)C[C@@H]3C(C)C)c1=O,,,,,,,,,,,,,,,8.09

# Second part, the compound after the results:
fraction unbound [1],Vdss [2] [L/kg],Tmax [3] [h],half-life [4] [h],half-life [5] [h],bioavailability [6] [%],solubility at 24 h [7] [µg/mL],fraction unbound [8],solubility at 24 h [9] [µg/mL],Cmax [10] [ng/mL],CL free [11] [mL/min/kg],AUC(0-inf) [12] [ng·h/mL],half-life [13] [h],solubility [14] [µM],pIC50 (MOLM-13),SMILES
0.044,1.43,1.67,5.02,> 3,103,,0.025,,5730,144,50400,> 3,< 4,9.41,CCn1c(CO)nn(-c2cc3c(C(C)C)nn(-c4c(F)cccc4Cl)c(=O)c3cc2F)c1=O
0.122,1.94,0.83,4.55,> 3,111,99,0.134,78,4260,40.7,35100,> 3,> 400,9.14,CCn1c(CO)nn(-c2cc3c(C(C)C)nn(-c4ccccc4C)c(=O)c3cc2F)c1=O
,,,,> 3,,,,,,,,> 3,259,9.41,C=C(C)c1nn(-c2c(F)cccc2Cl)c(=O)c2cc(F)c(-n3nc(CO)n(CC)c3=O)cc12
0.049,2.12,0.67,4.03,2.33,102,198,0.032,43,3210,245,21800,> 3,,9.14,CCn1c(CO)nn(-c2cc3c(C(C)C)cc(-c4ccccc4C)c(=O)n3cc2F)c1=O
,,,,,,,,,,,,,,9.33,CCn1c(CO)nn(-c2cc3c(cc2F)C(=O)C(c2ccccc2C)CN3C(C)C)c1=O (configuration not stated)
